Reference: patent US20180325840A1, “COMPOSITIONS AND METHODS FOR PREVENTING OR TREATING FATTY PANCREAS OR AMELIORATING PANCREAS DISEASES CAUSED BY FATTY PANCREAS, DIABETES MELLITUS OR OTHER RELATED DISORDERS” (NATIONAL DEFENSE EDUCATION AND RESEARCH FOUNDATION, priority 2015, published 2018)

Tests used:
Format in all cases: in vivo
B6 mice [1] = assay: Triglyceride (TG) and total cholesterol (TC) in pancreatic tissue of high-fat diet mice; settings: 4 weeks of administration
Procedure: (§1) The experimental animals employed were B6 mice. The number of test animals in each group of the pre-test was four or more, and the number of test animals in each group of the confirmation test was twelve or more. Male mice having a weight of 18 to 23 g were bred in an animal room with a normal light and dark cycle (7:00 am to 7:00 pm being the bright period, and the rest being the dark period) at a temperature of 23±2° C. and a relative humidity of 55±15%. After the animals were purchased from Lesco Biotech Co., Ltd. (Taipei) and housed at the National Defense Animal Center, the animal experiments were conducted following the Experimental Guide of National Health Research Institute. First, the animals were fed with 3-5 grams of general diet daily, and the water was supplied infinitely. After 1 to 2 weeks of breeding, the healthy state was observed. The body weight was recorded once a week.
(§2) The test animals were randomly grouped into blank control (Blank), high-fat control (HFD), positive control (PS), and test group. The blank control was given a normal diet; the high-fat control was given a high-fat diet; the positive control was given a high-fat diet and tube fed with silymarin (5 mg/kg/day) (Iranian Journal of Pharmaceutical Research (2016), 15 (3): 493-500; Life Sciences 75 (2004) 2167-2180; and Pharm Biol. 2016 Jul. 8:1-6); and the test group was given a high-fat diet and tube fed with the test ingredient individually.
(§3) The blank control was fed with a normal diet arbitrarily for 12 weeks. The high-fat control, the positive control, and the test group were fed with a high-fat diet arbitrarily for 12 weeks. After 8 weeks of feeding, the blank control and the high-fat control were tube fed with deionized water once a day. The positive control was tube fed with silymarin once a day. The test group was tube fed with test compound(s) once a day for 4 weeks.
1.4.6 Analysis of Triglyceride (TG) and Total Cholesterol (TCHO, TC) in Pancreatic Tissue
After the mice were sacrificed, the pancreas was taken out and weighed to compare the ratios of pancreas weight to body weight. The remaining pancreas was frozen and preserved, and the contents of triglyceride and the total cholesterol in the pancreas were measured.
(§4) All data were expressed as mean±standard deviation (SD), and the test results were calculated using the ANOVA test method to determine whether there was a statistically significant difference by using the Statistical Package of the Social Science program (Version 13, SPSS Inc.) software package. Subsequently, post hoc test least significant difference method was used to perform multiple comparisons to confirm the significant differences between the groups. The significant difference between the averages of the groups was p<0.05.

B6 mice [2] = assay: Blood glucose analysis (GLU) in high-fat diet mice; settings: for GLU: fasted overnight, 4 weeks of administration; for effect on GLU (in words): single test compound
Procedure: as §1, §2, §3
1.4.2 Analysis of Biochemical Functions of the Pancreas: Blood Glucose Analysis (GLU)
Blood glucose analysis was performed with Roche's ACCU-CHEK Active blood glucose meter. One day before blood collection, mice were fasted overnight. The code card of the blood glucose test paper was inserted into the blood glucose meter, and then the blood glucose test paper was inserted. After the blood drop pattern appeared on the meter, a drop of blood was taken from in vein at the cheek of the mouse with a buccal needle and then dropped into the blood glucose test paper. The blood glucose data shown on the blood glucose meter were recorded.
as §4

B6 mice [3] = assay: Intraperitoneal glucose tolerance test (IPGTT) in high-fat diet mice; settings: for AUC of IPGTT: 2 g/kg glucose IP, blood glucose vs. time, 4 weeks of administration; for effect on sugar tolerance (IPGTT, in words): single test compound
Procedure: as §1, with “Male mice having a weight of 18 to 23 g were bred in an animal room with a normal light and dark cycle (7:00 am to 7:00 pm being the bright period, and the rest being the dark period) at a temperature of 23±2° C. and a relative humidity of 55±15%.” left out
The test animals were randomly grouped into blank control (Blank), high-fat control (HFD), positive control (PS), and test group.
as §3
1.4.3 Analysis of Biochemical Functions of the Pancreas: Intraperitoneal Glucose Tolerance Test (IPGTT)
The mice were moved into a clean cage and fasted overnight. There was no food or feces at the feeding funnel or the bottom of the clean cage to ensure that the animals may get drinking water at all times. The body weight of the mice was measured, and the volume of the glucose solution required for intraperitoneone (IP) injection was calculated (based on a concentration of 250 mg/mL and 2 g of glucose per kg of mouse weight, the volume (μl) required would be 8× body weight (g)). The mice were moved out and injected intraperitoneally with an appropriate amount of glucose solution, and the injection time was recorded. Blood samples were taken from the tail of the mice at 0, 15, 30, 60, 120 and 150 minutes after the glucose solution was injected. The concentration of blood glucose was measured, and the blood glucose analysis was performed using the Roche's ACCU-CHEK Active blood glucose meter.
as §4

B6 mice [4] = assay: Fasting insulin concentration (ELISA) in high-fat diet mice; settings: for fasting insulin concentration: 4 weeks of administration; for effect on fasting insulin concentration (in words): single test compound
Procedure: as §1, §2, §3
1.4.4 Analysis of Biochemical Functions of the Pancreas: Analysis of Fasting Insulin Concentration
At the end of the test (at the twelfth week), the mice were fasted to collect the blood following the operation instructions of the mouse ultrasensitive insulin ELISA kit (ALPCO).
as §4

B6 mice [5] = assay: Homeostasis model assessment of insulin resistance (HOMA-IR) in high-fat diet mice; settings: for HOMA-IR: 4 weeks of administration; for effect on insulin resistance (in words): single test compound
Procedure: as §1, §2, §3
1.4.5 Analysis of Biochemical Functions of the Pancreas: Homeostasis Model Assessment of Insulin Resistance (HOMA-IR)
The mice were fasted to collect the blood at the end of the test (at the twelfth week), and the concentrations of blood glucose and insulin were measured and calculated according to the following formula: […]
as §4

B6 mice [6] = assay: Serum (plasma) triglyceride (TG) in high-fat diet mice; settings: 4 weeks of administration
Procedure: as §1, §2, §3
Before the start of the test and at the 8th and 12th week after the start of the test, blood was collected from the cheek or heart. All the animals were weighed and then sacrificed at the end of the test, and blood was collected from the cheek or heart again. The blood samples of mice were allowed to stand at room temperature for 1 hour to coagulate, and then centrifuged at 15,700×g by a frozen centrifuge at 4° C. for 5 minutes to separate the serum.
1.4.1 Analysis of Serum Triglyceride (TG) and Total Cholesterol (TCHO, TC)
Triglyceride (TG) and total cholesterol (TCHO, TC) in the serum were measured by the automatic blood biochemical analyzer.
as §4

In the case of O=C(CCc1ccc(O)cc1)c1c(O)cc(O)cc1O[C@@H]1O[C@H](CO)[C@@H](O)[C@H](O)[C@H]1O [phloridzin], the “pancreatic TC” value (B6 mice [1]; 2.5 mg/kg tube fed once a day) is reported as 3.3 ± 1.1 mg/g pancreatic tissue, the “pancreatic TG” value (B6 mice [1]; 2.5 mg/kg tube fed once a day) is reported as 23.3 ± 24.0 mg/g pancreatic tissue and the GLU (B6 mice [2]; 2.5 mg/kg) is reported as 216.2 ± 26.4 mg/dL. For the same molecule, the “AUC of IPGTT” value (B6 mice [3]; 2.5 mg/kg) was 51.3 ± 8.9 g·h/dL, the fasting insulin concentration (B6 mice [4]; 2.5 mg/kg) was 1.1 ± 0.3 ng/mL and the HOMA-IR (B6 mice [5]; 2.5 mg/kg) was 0.6 ± 0.2. For the same molecule, the “TG (plasma triglyceride)” value (B6 mice [6]; 2.5 mg/kg) was 148.3 ± 31.4 mg/dL.
For O=c1c(-c2ccc(O)cc2)coc2c([C@@H]3O[C@H](CO)[C@@H](O)[C@H](O)[C@H]3O)c(O)ccc12 [puerarin], the “pancreatic TC” value (B6 mice [1]; 2.5 mg/kg tube fed once a day) was 4.0 ± 1.2 mg/g pancreatic tissue, the “pancreatic TG” value (B6 mice [1]; 2.5 mg/kg tube fed once a day) was 17.3 ± 13.4 mg/g pancreatic tissue and the GLU (B6 mice [2]; 2.5 mg/kg) was 172.3 ± 22.2 mg/dL. The “AUC of IPGTT” value (B6 mice [3]; 2.5 mg/kg) was 45.1 ± 11.2 g·h/dL, the “effect on sugar tolerance (IPGTT, in words)” value (“effect on sugar tolerance” for short) (B6 mice [3]) was “significantly reduce” and the fasting insulin concentration (B6 mice [4]; 2.5 mg/kg) was 0.9 ± 0.3 ng/mL. For the same molecule, the “effect on fasting insulin concentration (in words)” value (B6 mice [4]) was “significantly reduce”, the HOMA-IR (B6 mice [5]; 2.5 mg/kg) was 0.4 ± 0.2 and the “effect on insulin resistance (in words)” value (B6 mice [5]) was “significantly reduce”. The “TG (plasma triglyceride)” value (B6 mice [6]; 2.5 mg/kg) was 166.7 ± 22.0 mg/dL.
For O=C1NS(=O)(=O)c2ccccc21 [saccharin], the “pancreatic TC” value (B6 mice [1]; 1.5 mg/kg tube fed once a day) was 3.0 ± 0.8 mg/g pancreatic tissue, the “pancreatic TG” value (B6 mice [1]; 1.5 mg/kg tube fed once a day) was 4.7 ± 2.9 mg/g pancreatic tissue and the GLU (B6 mice [2]; 1.5 mg/kg) was 92.0 ± 9.6 mg/dL. For the same molecule, the “effect on GLU (in words)” value (B6 mice [2]) was “significantly reduce”, the “AUC of IPGTT” value (B6 mice [3]; 1.5 mg/kg) was 41.9 ± 6.2 g·h/dL and the “effect on sugar tolerance” value (B6 mice [3]) was “significantly reduce”. For the same molecule, the fasting insulin concentration (B6 mice [4]; 1.5 mg/kg) was 1.3 ± 1.1 ng/mL, the “effect on fasting insulin concentration (in words)” value (B6 mice [4]) was “significantly reduce” and the HOMA-IR (B6 mice [5]; 1.5 mg/kg) was 0.3 ± 0.3. The “effect on insulin resistance (in words)” value (B6 mice [5]) was “significantly reduce” and the “TG (plasma triglyceride)” value (B6 mice [6]; 1.5 mg/kg) was 142.6 ± 34.6 mg/dL.
In the case of OC[C@H]1O[C@H](O[C@]2(CCl)O[C@H](CCl)[C@@H](O)[C@@H]2O)[C@H](O)[C@@H](O)[C@H]1Cl [sucralose], the “pancreatic TC” value (B6 mice [1]; 1.5 mg/kg tube fed once a day) is reported as 4.2 ± 0.5 mg/g pancreatic tissue, the “pancreatic TG” value (B6 mice [1]; 1.5 mg/kg tube fed once a day) is reported as 8.1 ± 5.6 mg/g pancreatic tissue and the “pancreatic TC” value (B6 mice [1]; 7.5 mg/kg tube fed once a day) is reported as 3.1 ± 0.4 mg/g pancreatic tissue. For the same molecule, the “pancreatic TG” value (B6 mice [1]; 7.5 mg/kg tube fed once a day) was 5.2 ± 2.1 mg/g pancreatic tissue, the GLU (B6 mice [2]; 1.5 mg/kg) was 128.7 ± 19.3 mg/dL and the “effect on GLU (in words)” value (B6 mice [2]) was “significantly reduce”. For the same molecule, the “AUC of IPGTT” value (B6 mice [3]; 1.5 mg/kg) was 44.2 ± 3.7 g·h/dL, the “effect on sugar tolerance” value (B6 mice [3]) was “significantly reduce” and the fasting insulin concentration (B6 mice [4]; 1.5 mg/kg) was 1.3 ± 0.5 ng/mL. The “effect on fasting insulin concentration (in words)” value (B6 mice [4]) was “significantly reduce”, the HOMA-IR (B6 mice [5]; 1.5 mg/kg) was 0.4 ± 0.2 and the “effect on insulin resistance (in words)” value (B6 mice [5]) was “significantly reduce”. The “TG (plasma triglyceride)” value (B6 mice [6]; 1.5 mg/kg) was 126.9 ± 43.3 mg/dL and the “TG (plasma triglyceride)” value (B6 mice [6]; 7.5 mg/kg) was 186.9 ± 17.2 mg/dL.
